Experimental data: PubChem BioAssay (NCI)
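Test compounds were applied to cells in 96-well plates for 48 hours at 5 doses. At the GI50, growth is halved. TGI marks complete inhibition of growth.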

Assays:
Test in all cases: growth of human tumour cells (NCI), 48 h
[1] = system: 786-0 renal
[2] = system: CAKI-1 renal
[3] = system: CCRF-CEM leukemia
[4] = system: HCT-116 colon
[5] = system: HL-60(TB) leukemia
[6] = system: HOP-62 NSCLC
[7] = system: HT29 colon
[8] = system: MOLT-4 leukemia
[9] = system: SK-MEL-2 melanoma
[10] = system: SW-620 colon

`Cc1[nH]nc(C(=O)N/N=C/c2cccs2)c1N=NN(C)C` was tested, and the TGI [1] was 69.6 µM, the TGI [2] was 25.9 µM and the TGI [3] was > 100 µM. For the same molecule, the TGI [4] was > 100 µM, the TGI [5] was 89.4 µM and the TGI [6] was 50.1 µM. For the same molecule, the TGI [7] was 17.4 µM, the TGI [8] was 90.7 µM and the TGI [9] was 79.8 µM. For the same molecule, the TGI [10] was 93.5 µM.
For `Cc1ccc(Nc2ccnc(Nc3cccc(C(N)=O)c3)n2)cc1O`, the GI50 [1] was 8.09 µM, the TGI [1] was > 25 µM and the GI50 [2] was 4.11 µM. For the same molecule, the TGI [2] was 19 µM, the GI50 [3] was 7.99 µM and the TGI [3] was > 25 µM. The GI50 [4] was 8.01 µM, the TGI [4] was > 25 µM and the GI50 [5] was 8.1 µM. The TGI [5] was > 25 µM, the GI50 [6] was 5.5 µM and the TGI [6] was > 19 µM. The GI50 [7] was 13.9 µM, the TGI [7] was > 25 µM and the GI50 [8] was 10.5 µM. The TGI [8] was > 25 µM, the GI50 [9] was 8.45 µM and the TGI [9] was > 25 µM. For the same molecule, the GI50 [10] was 9.62 µM and the TGI [10] was > 25 µM.
In the case of `CC(C)=CCC[C@](C)(O)[C@H]1CC[C@]2(C)[C@@H]1CC[C@@H]1[C@@]3(C)CC[C@H](OC(=O)CCC(=O)O)C(C)(C)[C@@H]3CC[C@]12C`, the GI50 [1] is reported as > 100 µM, the TGI [1] is reported as > 100 µM and the GI50 [2] is reported as 24.7 µM. For the same molecule, the TGI [2] was > 100 µM, the GI50 [3] was 12.1 µM and the TGI [3] was 58 µM. For the same molecule, the GI50 [4] was 56.5 µM, the TGI [4] was > 100 µM and the GI50 [5] was 22.2 µM. For the same molecule, the TGI [5] was 53.1 µM, the GI50 [6] was 37.6 µM and the TGI [6] was > 100 µM. The GI50 [7] was 29.2 µM, the TGI [7] was > 100 µM and the GI50 [8] was 21 µM. For the same molecule, the TGI [8] was 94 µM, the GI50 [9] was 25.3 µM and the TGI [9] was 85.6 µM. For the same molecule, the GI50 [10] was 35.4 µM and the TGI [10] was > 100 µM.
`COCCOC(=O)CCn1cc(F)c(=O)[nH]c1=O` was tested, and the GI50 [1] was 8.12 µg/mL, the TGI [1] was > 150 µg/mL and the GI50 [2] was 4.07 µg/mL. The TGI [2] was > 150 µg/mL, the GI50 [3] was 16 µg/mL and the TGI [3] was > 150 µg/mL. For the same molecule, the GI50 [4] was 4.54 µg/mL, the TGI [4] was > 150 µg/mL and the GI50 [5] was 13.6 µg/mL. For the same molecule, the TGI [5] was > 150 µg/mL, the GI50 [6] was 17.3 µg/mL and the TGI [6] was > 150 µg/mL. The GI50 [7] was 4.55 µg/mL, the TGI [7] was > 150 µg/mL and the GI50 [8] was 19.7 µg/mL. For the same molecule, the TGI [8] was > 150 µg/mL, the GI50 [9] was > 150 µg/mL and the TGI [9] was > 150 µg/mL. For the same molecule, the GI50 [10] was 26.9 µg/mL and the TGI [10] was > 150 µg/mL.
`COc1cc(C=NCC(=O)CSC(c2ccccc2)c2ccccc2)cc(OC)c1OC` was tested, and the GI50 [1] was 24.6 µM, the TGI [1] was > 100 µM and the GI50 [2] was 25.2 µM. For the same molecule, the TGI [2] was > 100 µM, the GI50 [3] was 5.41 µM and the TGI [3] was > 100 µM. The GI50 [4] was 14.1 µM, the TGI [4] was > 100 µM and the GI50 [5] was 8.01 µM. For the same molecule, the TGI [5] was 26.8 µM, the GI50 [6] was 33.2 µM and the TGI [6] was > 100 µM. It also gave a GI50 [7] of 8 µM, a TGI [7] of 83.6 µM and a GI50 [8] of 6.96 µM. It also gave a TGI [8] of 89.9 µM, a GI50 [9] of 19.6 µM and a TGI [9] of 50 µM. The GI50 [10] was 32.7 µM and the TGI [10] was > 100 µM.
Work on `CC(Cl)CC(=O)Nc1ccc2c(c1)oc(=O)c1cc(NC(=O)CC(C)Cl)ccc12` (stereo not given) yielded a GI50 [1] of 16.9 µM, a TGI [1] of 44.1 µM and a GI50 [2] of 19.7 µM. For the same molecule, the TGI [2] was > 100 µM, the GI50 [3] was 11.1 µM and the TGI [3] was 29 µM. It also gave a GI50 [4] of 12.4 µM, a TGI [4] of 40 µM and a GI50 [5] of 9.03 µM. For the same molecule, the TGI [5] was 29.3 µM, the GI50 [6] was 11.5 µM and the TGI [6] was 28.2 µM. For the same molecule, the GI50 [7] was 12.2 µM, the TGI [7] was 34.5 µM and the GI50 [8] was 10.2 µM. The TGI [8] was 34.4 µM, the GI50 [9] was 2.99 µM and the TGI [9] was 83.6 µM. The GI50 [10] was 33.3 µM and the TGI [10] was > 100 µM.
In the case of `O=C1CCC(c2ccccc2)(c2ccccc2)CC1`, the TGI [1] is reported as > 100 µM, the TGI [2] is reported as > 100 µM and the TGI [3] is reported as 52 µM. The TGI [4] was > 100 µM, the TGI [5] was 81 µM and the TGI [6] was > 100 µM. The TGI [7] was > 100 µM, the TGI [8] was > 100 µM and the TGI [9] was > 100 µM. The TGI [10] was > 100 µM.
`CCNC1=CC(=O)c2ncccc2C1=O` gave a GI50 [1] of 9.09 µM, a TGI [1] of 23.4 µM and a GI50 [2] of 7.5 µM. The TGI [2] was 21.1 µM, the GI50 [3] was 6.14 µM and the TGI [3] was 42.4 µM. For the same molecule, the GI50 [4] was 3 µM, the TGI [4] was 9.7 µM and the GI50 [5] was 1.87 µM. The TGI [5] was 7.13 µM, the GI50 [6] was 0.583 µM and the TGI [6] was 2.04 µM. For the same molecule, the GI50 [7] was 2.82 µM, the TGI [7] was 6.59 µM and the GI50 [8] was 2.94 µM. It also gave a TGI [8] of 14.3 µM, a GI50 [9] of 2.36 µM and a TGI [9] of 7.53 µM. For the same molecule, the GI50 [10] was 1.75 µM and the TGI [10] was 4.3 µM.
Molecule `Clc1cccc(C2SCc3nc4ccccc4n32)c1Cl` (stereo not given) has a TGI [1] of 32.8 µM, a TGI [2] of 34.1 µM and a TGI [3] of 48.2 µM. For the same molecule, the TGI [4] was 33.5 µM, the TGI [5] was 20.3 µM and the TGI [6] was 32 µM. It also gave a TGI [7] of 27.5 µM, a TGI [8] of 41.9 µM and a TGI [9] of 32.2 µM. It also gave a TGI [10] of 30.8 µM.
Work on `COc1cc(C(=O)c2c(-c3ccccc3)oc3ccccc23)cc(OC)c1O` yielded a GI50 [1] of 4.15 µM, a TGI [1] of 17 µM and a GI50 [2] of 0.766 µM. For the same molecule, the TGI [2] was 16 µM, the GI50 [3] was 1.71 µM and the TGI [3] was 14.3 µM. It also gave a GI50 [4] of 1.04 µM, a TGI [4] of 12.5 µM and a GI50 [5] of 0.565 µM. The TGI [5] was 3.85 µM, the GI50 [6] was 7.3 µM and the TGI [6] was 23.4 µM. The GI50 [7] was 9.78 µM, the TGI [7] was > 100 µM and the GI50 [8] was 2.69 µM. The TGI [8] was 22.2 µM, the GI50 [9] was 6.78 µM and the TGI [9] was 29.2 µM. It also gave a GI50 [10] of 0.96 µM and a TGI [10] of 26.9 µM.
